Data on 2 cell lines can be found in the supplement of paper PMC10307832.

Test in all cases: relative viability (nuclei count vs DMSO), 5 days (fraction); higher = more cells survive
Compound in assay [1]: C(C(=O)C(=O)O)Br [Bromopyruvate] + NC(=O)Nc1cc(-c2cccc(F)c2)sc1C(=O)N[C@H]1CCCNC1 [AZD7762] (partner 0.2 µM)
The method in brief:
(§1)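 The day after seeding in 1536-well plates, lung cancer cell lines were treated by pin tool with a single drug, or with a fixed anchor-drug dose together with five library-drug doses (not always all listed) in √10 steps. After 5 days, a combined fix-and-stain solution (final 0.05% Triton X-100, 1% formaldehyde, 1 ug/ml Hoechst) was added. Nuclei counted on 4× images gave relative viability as treated counts over vehicle counts, reported as the median of duplicate plates.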

Compound in assay [2]: CC(O)(CS(=O)(=O)c1ccc(F)cc1)C(=O)Nc1ccc(C#N)c(C(F)(F)F)c1 [Bicalutamide] + Cc1nc(NC(=O)N2CCC[C@H]2C(N)=O)sc1-c1ccnc(C(C)(C)C(F)(F)F)c1 [Alpelisib] (partner 2 µM)
The gist of the method:
as §1

Compound in assay [3]: C(C(=O)C(=O)O)Br [Bromopyruvate] + Cc1cc(Nc2cc(N3CCN(C)CC3)nc(Sc3ccc(NC(=O)C4CC4)cc3)n2)n[nH]1 [Tozasertib] (partner 0.1 µM)
The method in brief:
as §1

Compound in assay [4]: C(C(=O)C(=O)O)Br [Bromopyruvate] + COc1cccc2cc(-c3nc([C@H]4CC[C@H](C(=O)O)CC4)n4ncnc(N)c34)[nH]c12 [OSI-027] (partner 0.5 µM)
The gist of the method:
as §1

With PC-14, the relative viability is 0.483 in assay [1] (first compound 1 µM); 0.401 in assay [1] (first compound 3.162 µM); 0.407 in assay [1] (first compound 10 µM); 0.412 in assay [1] (first compound 31.62 µM); 0.384 in assay [1] (first compound 100 µM); 0.916 in assay [2] (first compound 0.08 µM). The relative viability in assay [2] (first compound 0.253 µM) stood at 0.952; in assay [2] (first compound 0.8 µM), 0.969; in assay [2] (first compound 2.53 µM), 0.869; in assay [3] (first compound 1 µM), 0.598; in assay [3] (first compound 3.162 µM) it was 0.566; in assay [3] (first compound 10 µM), 0.633. Moreover, the relative viability in assay [3] (first compound 31.62 µM) was 0.633; in assay [3] (first compound 100 µM) it was 0.628; in assay [4] (first compound 1 µM) it was 0.788; in assay [4] (first compound 3.162 µM), 0.837; in assay [4] (first compound 10 µM), 1.37; in assay [4] (first compound 31.62 µM), 0.825. Further, the relative viability in assay [4] (first compound 100 µM) stood at 0.841.

On to CAL-12T, for which the relative viability in assay [1] (first compound 1 µM) was 0.633; in assay [1] (first compound 3.162 µM) it was 0.588; in assay [1] (first compound 10 µM), 0.611; in assay [1] (first compound 31.62 µM), 0.568; in assay [1] (first compound 100 µM) it was 0.637; in assay [2] (first compound 0.08 µM), 1.39. Further, the relative viability turned out to be 1.09 in assay [2] (first compound 0.253 µM); 1.44 in assay [2] (first compound 0.8 µM); 1.1 in assay [2] (first compound 2.53 µM); 0.362 in assay [3] (first compound 1 µM); 0.589 in assay [3] (first compound 3.162 µM); 0.242 in assay [3] (first compound 10 µM). In addition, the relative viability in assay [3] (first compound 31.62 µM) came out at 0.294; in assay [3] (first compound 100 µM) it was 0.308; in assay [4] (first compound 1 µM), 0.578; in assay [4] (first compound 3.162 µM) it was 0.675; in assay [4] (first compound 10 µM), 0.85; in assay [4] (first compound 31.62 µM), 0.595. Moreover, the relative viability in assay [4] (first compound 100 µM) stood at 0.764.
